From patent US20260174860A1, “HYBRID COMPOUNDS OF SCLAREOL AND DOXORUBICIN, THEIR SYNTHESIS AND APPLICATION” (INSTITUTE FOR BIOLOGICAL RESEARCH "SINISA STANKOVIC" - …, priority 2023, published 2026)
Like-named read-outs stand apart in the source and are kept apart here.

Experiments:
[1] = tested on: spheroids of ovarian cancer cell lines that are resistant to DOX; conditions: effect of SC; cited from earlier work
[2] = tested on: U87, U87-TxR, U251, NCI-H460, NCI-H460/R, DLD1, DLD1-TxR and MRC-5; test: MTT cytotoxicity across the cell line panel (FIG. 1); type: cell-based; conditions: Homo sapiens
Method: The MTT test was used to evaluate the effect of the compounds on cell viability. The test relies on the reduction of tetrazolium salt (MTT) to formazan, which is catalyzed by the mitochondrial enzyme succinate dehydrogenase. The activity of succinate dehydrogenase, which is indicative of mitochondrial respiration, is taken as an indirect measure of the metabolic activity of the cell, and thus its viability. The MTT-formazan produced is a purple-colored product, whose absorbance is measured at a wavelength of 570 nm. • a) To determine the inhibition of cell growth by SC, different cell lines were exposed to increasing concentrations of SC (5, 10, 25, 50, and 100 μM). […] The absorbance of the samples was measured at 570 nm using a Multiskan Sky Microplate spectrophotometer (ThermoFisher Scientific, USA). The results were analyzed using GraphPad Prism 8.0.2. software, and the IC50 values were determined by non-linear regression. • b) To test the interaction between SC and DOX in terms of cytotoxicity in different cell lines, cells were seeded in 96-well microtiter plates at a density of 2,000 cells per well for NCI-H460, NCI-H460/R, DLD1 and DLD1-TxR, and 4,000 cells per well for MRC-5, U87, U87-TxR, and U251 in 100 μl of the appropriate medium. […]

Balb/c mice = test: Comparative toxicology study of DOX and CON1; type: in vivo; conditions: i.p.; for creatine phosphokinase (CPK): after 72 h, only DOX significant; for other blood parameters (RBC, HGB, HCT, MCV, MCH, MCHC, RDW, PLT, MPV): data not shown; for percentage of lymphocytes (% LYM, LYM, WBC) / percentage of monocytes and granulocytes (% MON and % GRA): over time
Method: Male Balb/c mice, aged 7-11 weeks, were sourced from the EL-42BIO/Br-01 (Laboratory of Pharmacology, School of Medicine, University of Thessaly, Larissa, Greece). The mice were kept in an environment with a 12-hour light/dark cycle, humidity of around 50-60%, and a temperature of 20-22° C. They had free access to food and water. The handling and experimentation of the mice were conducted in compliance with the Greek laws (PD 56/2013 and Circular 2215/117550/2013) and the European Union guidelines ([…]). The protocol was approved by the IACUC and Greek authorities (License no. 58376/13.02.2023). The mice were divided into three groups with two mice per group, amounting to a total of 18 mice. They were treated as follows: Group 1 received vehicle (10% DMSO and 5% Tween80); Group 2-DOX received 7 mg/kg of body weight via intraperitoneal injection (i.p.); Group 3 received CON1 at 14 mg/kg of body weight (to achieve a DOX concentration of 7 mg/kg of body weight), i.p. The study took place over three time points: 24 h, 48 h and 72 h. At the end of each period, blood samples were collected from the mice's tails and cheeks, and the mice were euthanized by CO2 inhalation followed by cervical dislocation. Fresh blood samples were analyzed using the scil Vet ABC™Hematology Analyzer (scil animal care company GmbH, Germany), while sera from all samples were extracted and analyzed using the Skyla VB1 Veterinary Clinical Chemistry Analyzer (Skyla Corporation, Taiwan) with the Critical Care Panel (900-330) (Skyla Corporation, Taiwan).

[3] = Zetasizer measurement of size, polydispersity and zeta potential; type: physicochemical; conditions: 25° C., diluted 100 times with ultrapure water, mean of three
Method: The Malvern Zetasizer Nano ZS (Malvern Instruments, United Kingdom) was used to analyze the physico-chemical stability characteristics of conjugates. The measurement range was from 0.6 nm up to […]. The mean size of conjugates, the polydispersity index (PDI) and zeta potential were measured. All measurements were taken at a temperature of 25° C. and each sample was diluted 100 times with ultrapure water. The measurements were repeated three times, and the results were presented as the mean value. PDI is a parameter used to define the size range of particles. The term “polydispersity” (or “dispersity” as recommended by IUPAC) describes the degree of non-uniformity of a size distribution of particles. Zeta potential represents the surface charge of nanoparticles and indicates their long-term stability.

breast cancer cell lines = conditions: 0.1 μM DOX alone or combined with 50 μM SC; cited from earlier work
[4] = CON1 14 mg/kg, at 48 h, disappeared after 72 h
[5] = DOX 7 mg/kg, CON1 14 mg/kg, 24, 48, 72 h

Molecule	accumulation of DOX in spheroids [1]	increase of the cytotoxicity of DOX [1]	IC50 ([2]; range depending on the cell type, FIG. 1, MTT 72 h, read-out: IC50 value of 50% inhibition of cell growth)	percentage of eosinophils (% EOS) (Balb/c mice; CON1 14 mg/kg)	Ca levels (Balb/c mice; [4])	Na levels (Balb/c mice; [4])	total bicarbonate (tCO2) (Balb/c mice; CON1 14 mg/kg, at 48 h, disappeared by 72 h)	alanine aminotransferase (ALT) (Balb/c mice; [5])	alkaline phosphatase (ALP) (Balb/c mice; [5])	creatine phosphokinase (CPK) (Balb/c mice; DOX 7 mg/kg, CON1 14 mg/kg)	other blood parameters (RBC, HGB, HCT, MCV, MCH, MCHC, RDW, PLT, MPV) (Balb/c mice; DOX 7 mg/kg, CON1 14 mg/kg)	percentage of lymphocytes (% LYM, LYM, WBC) (Balb/c mice; DOX 7 mg/kg, CON1 14 mg/kg)	percentage of monocytes and granulocytes (% MON and % GRA) (Balb/c mice; DOX 7 mg/kg, CON1 14 mg/kg)	Z-Average [3]	rate of cell growth (breast cancer cell lines)	levels of K (Balb/c mice; DOX 7 mg/kg, 24, 48, 72 h)	IC50 ([2]; micromolar range in resistant lines, nanomolar in sensitive ones, read-out: DOX active concentration in resistant cancer cell lines)
C=C[C@](C)(O)CC[C@@H]1[C@@]2(C)CCCC(C)(C)[C@@H]2CC[C@@]1(C)O [SC, sclareol]	did not enhance	4.5 times	20 to 70 µM														
N1-((25,3S,4S,6R)-3-hydroxy-2-methyl-6-(((1S,3S)-3,5,12-trihydroxy-3-(2-hydroxyacetyl)-10-methoxy-6,11-dioxo-1,2,3,4,6,11-hexahydrotetracen-1-yl)oxy)tetrahydro-2H-pyran-4-yl)-N4-(3-((4-((R,E)-3-hydroxy-5-((1R,2R,4aS,8aS)-2-hydroxy-2,5,5,8a-tetramethyldecahydronaphthalen-1-yl)-3-methylpent-1-en-1-yl)benzyl)amino)propyl) succinamide [CON1]				not significantly relevant	temporary increase	decrease	transiently increased	did not change	increase ALP levels after 48 h	increased	None of the tested compounds, DOX or CON1, had any impact	did not have any impact	did not have any impact	189.4 ± 9.7 nm·days			
COc1cccc2c1C(=O)c1c(O)c3c(c(O)c1C2=O)C[C@@](O)(C(=O)CO)C[C@@H]3O[C@H]1C[C@H](N)[C@H](O)[C@H](C)O1 [DOX, doxorubicin]								increase	significantly decrease	increased	None of the tested compounds, DOX or CON1, had any impact	decreased	increased		76%	consistently increased	< 5 µM
